# Reference: US20190071416A1, “COMPOUNDS FOR TREATMENT OF CANCER AND EPIGENETICS” (Agency For Science, Technology and Research, priority 2015, published 2019)
# Molecular target: T1, SMYD3 (Homo sapiens, UniProt Q9H7B4)
# T1 sequence (Q9H7B4 1-428): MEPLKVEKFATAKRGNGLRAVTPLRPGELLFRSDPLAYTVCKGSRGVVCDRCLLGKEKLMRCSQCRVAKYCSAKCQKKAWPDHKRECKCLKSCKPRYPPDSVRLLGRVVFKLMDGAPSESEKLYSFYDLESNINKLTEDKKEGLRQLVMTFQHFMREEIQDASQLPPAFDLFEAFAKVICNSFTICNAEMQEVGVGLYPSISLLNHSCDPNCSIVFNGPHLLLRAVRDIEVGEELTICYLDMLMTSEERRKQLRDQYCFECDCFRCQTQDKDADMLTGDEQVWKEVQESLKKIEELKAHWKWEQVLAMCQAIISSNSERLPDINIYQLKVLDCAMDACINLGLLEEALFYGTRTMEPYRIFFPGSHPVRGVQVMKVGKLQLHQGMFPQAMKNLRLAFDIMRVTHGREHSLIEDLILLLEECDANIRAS
# Assay: SMYD3 biochemical assay (MTase-Glo, MAP3K2 peptide substrate)
# Conditions: Table 3; MTase assay, MAP3K2 peptide substrate; read-out: IC50
# Method in brief: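 Luminescent readout of SAH production (coupled SAH→ATP conversion, MTase-Glo) after SMYD3 reacted 30 min at room temperature with 1.0 µM SAM and 10 µM MAP3K2 peptide, both final. Non-linear regression gave IC50 values.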
row,Compound,IC50 [nM]
1,"CCCOC(=O)N1CCN(C(=O)c2ccc3c(Cl)cc(-c4ccc5nn(C)cc5c4)nc3c2)C[C@@H]1C [B170, Propyl (S)-4-(4-chloro-2-(2-methyl-2H-indazol-5-yl)quinoline-7-carbonyl)-2-methylpiperazine-1-carboxylate]",260
2,"CCCOC(=O)N1CCN(C(=O)c2ccc3c(Cl)cc(-c4ccc(OC)c(CO)c4)nc3c2)C[C@@H]1C [B171, Propyl (S)-4-(4-chloro-2-(3-(hydroxymethyl)-4-methoxyphenyl)quinoline-7-carbonyl)-2-methylpiperazine-1-carboxylate]",150
3,"CCCOC(=O)N1CCN(C(=O)c2ccc3c(Cl)cc(-c4ccc(F)c(CN)c4)nc3c2)CC1 [B172, Propyl 4-(2-(3-(aminomethyl)-4-fluorophenyl)-4-chloroquinoline-7-carbonyl)piperazine-1-carboxylate]",39
4,"CCCOC(=O)N1CCN(C(=O)c2ccc3c(Cl)cc(-c4cnc5[nH]nc(C)c5c4)nc3c2)CC1 [B173, Propyl 4-(4-chloro-2-(3-methyl-1H-pyrazolo[3,4-b]pyridin-5-yl)quinoline-7-carbonyl)piperazine-1-carboxylate]",2500
5,"CCCOC(=O)N1CCN(C(=O)c2ccc3c(Cl)cc(-c4cnc5c(cnn5C)c4)nc3c2)CC1 [B174, Propyl 4-(4-chloro-2-(1-methyl-1H-pyrazolo[3,4-b]pyridin-5-yl)quinoline-7-carbonyl)piperazine-1-carboxylate]",470
6,"CCCOC(=O)N1CCN(C(=O)c2ccc3c(Cl)cc(-c4cnc5[nH]c(C)cc5c4)nc3c2)CC1 [B175, Propyl 4-(4-chloro-2-(2-methyl-1H-pyrrolo[2,3-b]pyridin-5-yl)quinoline-7-carbonyl)piperazine-1-carboxylate]",400
7,"CCCOC(=O)N1CCN(C(=O)c2ccc3c(Cl)cc(-c4ccc5[nH]nc(C)c5c4)nc3c2)CC1 [B176, Propyl 4-(4-chloro-2-(3-methyl-1H-indazol-5-yl)quinoline-7-carbonyl)piperazine-1-carboxylate]",490
8,"CCCOC(=O)N1CCN(C(=O)c2ccc3c(Cl)cc(-c4ccc(C)nc4)nc3c2)C[C@H]1C [B177, Propyl (R)-4-(4-chloro-2-(6-methylpyridin-3-yl)quinoline-7-carbonyl)-2-methylpiperazine-1-carboxylate]",360
9,"CCCOC(=O)N1CCN(C(=O)c2ccc3c(Cl)cc(-c4ccc(C(=O)OC)nc4)nc3c2)C[C@H]1C [B178, Propyl (R)-4-(4-chloro-2-(6-(methoxycarbonyl)pyridin-3-yl)quinoline-7-carbonyl)-2-methylpiperazine-1-carboxylate]",930
10,"CCCOC(=O)N1CCN(C(=O)c2ccc3c(Cl)cc(-c4cnn(C)c4)nc3c2)CC1 [B179, Propyl 4-(4-chloro-2-(1-methyl-1H-pyrazol-4-yl)quinoline-7-carbonyl)piperazine-1-carboxylate]",250
11,"CCCOC(=O)N1CCN(C(=O)c2ccc3c(Cl)cc(-c4ccc(F)c(N)c4)nc3c2)CC1 [B180, Propyl 4-(2-(3-amino-4-fluorophenyl)-4-chloroquinoline-7-carbonyl)piperazine-1-carboxylate]",250
12,"CCCOC(=O)N1CCN(C(=O)c2ccc3c(Cl)cc(-c4ccc(O)c(OCC)c4)nc3c2)CC1 [B181, Propyl 4-(4-chloro-2-(3-ethoxy-4-hydroxyphenyl)quinoline-7-carbonyl)piperazine-1-carboxylate]",290
13,"CCCOC(=O)N1CCN(C(=O)c2ccc3c(Cl)cc(-c4ccc(O)c(CO)c4)nc3c2)C[C@@H]1C [B182, Propyl (S)-4-(4-chloro-2-(4-hydroxy-3-(hydroxymethyl)phenyl)quinoline-7-carbonyl)-2-methylpiperazine-1-carboxylate]",140
14,"CCCOC(=O)N1CCN(C(=O)c2ccc3c(Cl)cc(-c4ccc5c(c4)ncn5C)nc3c2)CC1 [B183, Propyl 4-(4-chloro-2-(1-methyl-1H-benzo[d]imidazol-5-yl)quinoline-7-carbonyl)piperazine-1-carboxylate]",120
